# Results published in patent US7678803B2, “Quinazoline derivatives for the treatment of cancer” (Serenex, Inc., priority 2006, dated 2010).
# Tested on: HSP-90 (heat shock protein 90)
# Experiment: Determination of affinity for HSP-90 (elution from purine affinity column); note: key: +++: very high; ++: high; +: moderate
# Settings: relative binding affinity to HSP-90
# Protocol: Affinity of test compounds for HSP-90 is determined as follows: Protein mixtures obtained from a variety of organ tissues (for example: spleen, liver and lung) are reversibly bound to a purine affinity column to capture purine-binding proteins, especially HSP-90. […] The elution profile of Formula I compounds is determined by 1-dimensional SDS polyacrylamide gel electrophoresis. Gels are stained with a fluorescent stain such as sypro ruby (a highly sensitive fluorescent protein stain that can readily detect less than 1 fmol of total protein, i.e., less than 0.04 ng for a 40 kDa protein) or silver nitrate. The gels are imaged using a standard flat bed gel imager and the amount of protein estimated by densitometry. The percent of HSP-90 protein eluted from the column at each concentration is determined and IC50 values are calculated from these estimates.
row,SMILES,Affinity
1,"Cc1cn(-c2cc(F)c3c(N)ncnc3c2)c2c1C(=O)CC(C)(C)C2 [Compound 63, 1-(4-amino-5-fluoroquinazolin-7-yl)-3,6,6-trimethyl-6,7-dihydro-1H-indol-4(5H)-one]",+
2,"Cc1cn(-c2ccc3c(N)ncnc3c2O)c2c1C(=O)CC(C)(C)C2 [Compound 68, 1-(4-amino-8-hydroxyquinazolin-7-yl)-3,6,6-trimethyl-6,7-dihydro-1H-indol-4(5H)-one]",+++
3,"CC(C)Cc1nn(-c2ccc3c(N)ncnc3c2)c2c1C(=O)CC(C)(C)C2 [Compound 87, 1-(4-aminoquinazolin-7-yl)-3-isobutyl-6,6-dimethyl-6,7-dihydro-1H-indazol-4(5H)-one]",+++
4,"Cc1cn(-c2ccc3c(N)ncnc3c2SCCO)c2c1C(=O)CC(C)(C)C2 [Compound 93, 1-(4-amino-8-(2-hydroxyethylthio)quinazolin-7-yl)-3,6,6-trimethyl-6,7-dihydro-1H-indol-4(5H)-one]",+++
5,"C#CCOc1cc(-n2cc(C)c3c2CC(C)(C)CC3=O)cc2ncnc(N)c12 [Compound 71, 1-(4-amino-5-(prop-2-ynyloxy)quinazolin-7-yl)-3,6,6-trimethyl-6,7-dihydro-1H-indol-4(5H)-one]",+
6,"COc1cc(-n2cc(C)c3c2CC(C)(C)CC3=O)cc2ncnc(N)c12 [Compound 76, 1-(4-amino-5-methoxyquinazolin-7-yl)-3,6,6-trimethyl-6,7-dihydro-1H-indol-4(5H)-one]",++
7,"Cc1cn(-c2ccc3c(N)nc(N)nc3c2)c2c1C(=O)CC(C)(C)C2 [Compound 41, 1-(2,4-diaminoquinazolin-7-yl)-3,6,6-trimethyl-6,7-dihydro-1H-indol-4(5H)-one]",+++
8,"Cc1cn(-c2ccc3c(N)ncnc3c2)c2c1C(=O)CCC2 [Compound 45, 1-(4-aminoquinazolin-7-yl)-3-methyl-6,7-dihydro-1H-indol-4(5H)-one]",++
9,"Cc1nc(N)c2ccc(-n3cc(C)c4c3CC(C)(C)CC4=O)cc2n1 [Compound 40, 1-(4-amino-2-methylquinazolin-7-yl)-3,6,6-trimethyl-6,7-dihydro-1H-indol-4(5H)-one]",+++
10,"Cc1cn(-c2ccc3c(N)ncnc3c2Cl)c2c1C(=O)CC(C)(C)C2 [Compound 80, 1-(4-amino-8-chloroquinazolin-7-yl)-3,6,6-trimethyl-6,7-dihydro-1H-indol-4(5H)-one]",++
11,"CCCCOc1c(-n2cc(C)c3c2CC(C)(C)CC3=O)ccc2c(N)ncnc12 [Compound 53, 1-(4-amino-8-butoxyquinazolin-7-yl)-3,6,6-trimethyl-6,7-dihydro-1H-indol-4(5H)-one]",+++
12,"COCCCOc1c(-n2cc(C)c3c2CC(C)(C)CC3=O)ccc2c(N)ncnc12 [Compound 60, 1-(4-amino-8-(3-methoxypropoxy)quinazolin-7-yl)-3,6,6-trimethyl-6,7-dihydro-1H-indol-4(5H)-one]",+++
13,"Cc1cn(-c2ccc3c(N)ncc(C(=O)O)c3c2)c2c1C(=O)CC(C)(C)C2 [Compound 106, 1-amino-6-(3,6,6-trimethyl-4-oxo-4,5,6,7-tetrahydro-1H-indol-1-yl)isoquinoline-4-carboxylic acid]",++
14,"Cc1nn(-c2ccc3c(N)ncnc3c2F)c2c1C(=O)CC(C)(C)C2 [Compound 95, 1-(4-amino-8-fluoroquinazolin-7-yl)-3,6,6-trimethyl-6,7-dihydro-1H-indazol-4(5H)-one]",+++
15,"Cc1cn(-c2ccc3c(N)ncc(/C(N)=N/O)c3c2)c2c1C(=O)CC(C)(C)C2 [Compound 105, (Z)-1-amino-N′-hydroxy-6-(3,6,6-trimethyl-4-oxo-4,5,6,7-tetrahydro-1H-indol-1-yl)isoquinoline-4-carboximidamide]",+++
16,"CC1(C)CC(=O)c2c(C(F)(F)F)nn(-c3ccc4c(N)ncc(Br)c4c3)c2C1 [Compound 46, 1-(1-amino-4-bromoisoquinolin-6-yl)-6,6-dimethyl-3-(trifluoromethyl)-6,7-dihydro-1H-indazol-4(5H)-one]",+
